Target: human Autotaxin protein (Homo sapiens, UniProt Q13822)
Assay: Evaluation of inhibitory activity against human Autotaxin protein (18:1 LysoPC substrate, choline assay kit, absorbance 570 nm)
Assay type: biochemical
Settings: compound at 500 nM, 2 hours at 37° C.
Method in brief: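 Human Autotaxin incubated with compound (6 concentrations, 5-fold dilutions) and sonicated 18:1 LysoPC in Tris-Cl pH 8.0 buffer with KCl, CaCl2, MgCl2, NaCl and 1 mg/mL BSA, 2 h at 37° C. Released choline detected via choline oxidase/dye probe, 30 min, absorbance 570 nm. % inhibition relative to control absorbance.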

Row | inhibition at 0.5 µM | Compound
1 | 28.1% | OC1CN(C2CCN(c3nnc(-c4cnc(NC5Cc6cc(F)c(F)cc6C5)nc4)o3)CC2)C1 [Example 64, 1-(1-(5-(2-((5,6-Difluoro-2,3-dihydro-1H-inden-2-yl)amino)pyrimidin-5-yl)-1,3,4-oxadiazol-2-yl)piperidin-4-yl)azetidin-3-ol]
2 | 58% | NS(=O)(=O)C1CCN(c2nnc(-c3cnc(NC4Cc5cc(F)c(F)cc5C4)nc3)o2)CC1 [Example 65, 1-(5-(2-((5,6-Difluoro-2,3-dihydro-1H-inden-2-yl)amino)pyrimidin-5-yl)-1,3,4-oxadiazol-2-yl)piperidine-4-sulfonamide]
3 | 86.8% | O=c1[nH]nc(C2CCN(c3nnc(-c4cnc(NC5Cc6cc(F)c(F)cc6C5)nc4)o3)CC2)o1 [Example 66, 5-(1-(5-(2-((5,6-Difluoro-2,3-dihydro-1H-inden-2-yl)amino)pyrimidin-5-yl)-1,3,4-oxadiazol-2-yl)piperidin-4-yl)-1,3,4-oxadiazol-2(3H)-one]
4 | 30.9% | O=C(O)C1CCN(c2nnc(-c3cnc(NC4Cc5cc(F)c(F)cc5C4)nc3)o2)CC1 [Example 67, 1-(5-(2-((5,6-Difluoro-2,3-dihydro-1H-inden-2-yl)amino)pyrimidin-5-yl)-1,3,4-oxadiazol-2-yl)piperidine-4-carboxylic acid]
5 | 87.1% | O=C(O)CC1CCN(c2nnc(-c3cnc(NC4Cc5cc(F)c(F)cc5C4)nc3)o2)CC1 [Example 68, 2-(1-(5-(2-((5,6-Difluoro-2,3-dihydro-1H-inden-2-yl)amino)pyrimidin-5-yl)-1,3,4-oxadiazol-2-yl)piperidin-4-yl)acetic acid]
6 | 66.8% | O=C(NO)C1CCN(c2nnc(-c3cnc(NC4Cc5cc(F)c(F)cc5C4)nc3)o2)CC1 [Example 69, 1-(5-(2-((5,6-Difluoro-2,3-dihydro-1H-inden-2-yl)amino)pyrimidin-5-yl)-1,3,4-oxadiazol-2-yl)-N-hydroxypiperidine-4-carboxamide]
7 | 97.9% | COC1(c2c[nH]nn2)CCN(c2nnc(-c3cnc(NC4Cc5cc(F)c(F)cc5C4)nc3)o2)CC1 [Example 70, N-(5,6-difluoro-2,3-dihydro-1H-inden-2-yl)-5-(5-(4-methoxy-4-(1H-1,2,3-triazol-4-yl)piperidin-1-yl)-1,3,4-oxadiazol-2-yl)pyrimidin-2-amine]
8 | 98.6% | Fc1cc2c(cc1F)CC(Nc1ncc(-c3nnc(N4CCC(F)(c5cnn[nH]5)CC4)o3)cn1)C2 [Example 71, N-(5,6-difluoro-2,3-dihydro-1H-inden-2-yl)-5-(5-(4-fluoro-4-(1H-1,2,3-triazol-5-yl)piperidin-1-yl)-1,3,4-oxadiazol-2-yl)pyrimidin-2-amine]

— US12145929B2, “Piperidine derivative and pharmaceutical composition for inhibiting autotaxin comprising same” (NEXTGEN BIOSCIENCE CO., LTD., priority 2021, dated 2024)
